Results as given in ChEMBL document CHEMBL1201862, “PubChem BioAssay data set” (2004).
Activity calls are given as the source filed them.

What was measured:
P388/ADR = test: cells; type: functional; conditions: Mus musculus
SN12K1 = test: cells; type: functional; conditions: Homo sapiens
P388 = test: cells; type: functional; conditions: Mus musculus
[1] = molecular target: T1, Corticotropin-releasing factor receptor 2/Corticotropin-releasing factor-binding protein (Homo sapiens, UniProt P24387+Q13324); test: activators of CRF receptor 2 with binding protein – uHTS hits, confirmation (AID 602473); type: functional; conditions: read-out: EC50_Mean
T1 sequence (Q13324 whole entry): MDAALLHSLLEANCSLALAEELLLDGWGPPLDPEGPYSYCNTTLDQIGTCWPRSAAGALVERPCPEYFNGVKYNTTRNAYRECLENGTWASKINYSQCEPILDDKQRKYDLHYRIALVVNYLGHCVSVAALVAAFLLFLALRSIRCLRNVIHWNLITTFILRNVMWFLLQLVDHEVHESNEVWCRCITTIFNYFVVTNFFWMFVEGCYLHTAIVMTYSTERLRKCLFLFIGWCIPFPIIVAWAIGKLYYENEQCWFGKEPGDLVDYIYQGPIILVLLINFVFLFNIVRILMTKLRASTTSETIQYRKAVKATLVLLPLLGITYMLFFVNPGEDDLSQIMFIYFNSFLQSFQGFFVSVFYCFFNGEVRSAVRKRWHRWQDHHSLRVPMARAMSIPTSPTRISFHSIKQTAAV
T1 sequence (P24387 whole entry): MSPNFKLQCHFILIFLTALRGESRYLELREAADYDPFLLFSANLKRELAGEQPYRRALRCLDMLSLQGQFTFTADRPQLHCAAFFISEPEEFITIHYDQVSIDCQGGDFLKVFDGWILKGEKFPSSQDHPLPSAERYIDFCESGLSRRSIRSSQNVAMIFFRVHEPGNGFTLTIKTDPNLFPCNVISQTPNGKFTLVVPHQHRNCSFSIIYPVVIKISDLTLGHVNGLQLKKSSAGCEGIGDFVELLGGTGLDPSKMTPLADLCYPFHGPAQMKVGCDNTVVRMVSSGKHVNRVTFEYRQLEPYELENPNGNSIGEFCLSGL

Genome polyprotein = Genome polyprotein (dengue virus type 2, UniProt P29990); test: flavivirus cap methylation enzyme inhibition – biochemical, confirmation dose response, primary screen (AID 588689); type: functional
Sequence of Genome polyprotein (P29990 2492-3391 limits assumed): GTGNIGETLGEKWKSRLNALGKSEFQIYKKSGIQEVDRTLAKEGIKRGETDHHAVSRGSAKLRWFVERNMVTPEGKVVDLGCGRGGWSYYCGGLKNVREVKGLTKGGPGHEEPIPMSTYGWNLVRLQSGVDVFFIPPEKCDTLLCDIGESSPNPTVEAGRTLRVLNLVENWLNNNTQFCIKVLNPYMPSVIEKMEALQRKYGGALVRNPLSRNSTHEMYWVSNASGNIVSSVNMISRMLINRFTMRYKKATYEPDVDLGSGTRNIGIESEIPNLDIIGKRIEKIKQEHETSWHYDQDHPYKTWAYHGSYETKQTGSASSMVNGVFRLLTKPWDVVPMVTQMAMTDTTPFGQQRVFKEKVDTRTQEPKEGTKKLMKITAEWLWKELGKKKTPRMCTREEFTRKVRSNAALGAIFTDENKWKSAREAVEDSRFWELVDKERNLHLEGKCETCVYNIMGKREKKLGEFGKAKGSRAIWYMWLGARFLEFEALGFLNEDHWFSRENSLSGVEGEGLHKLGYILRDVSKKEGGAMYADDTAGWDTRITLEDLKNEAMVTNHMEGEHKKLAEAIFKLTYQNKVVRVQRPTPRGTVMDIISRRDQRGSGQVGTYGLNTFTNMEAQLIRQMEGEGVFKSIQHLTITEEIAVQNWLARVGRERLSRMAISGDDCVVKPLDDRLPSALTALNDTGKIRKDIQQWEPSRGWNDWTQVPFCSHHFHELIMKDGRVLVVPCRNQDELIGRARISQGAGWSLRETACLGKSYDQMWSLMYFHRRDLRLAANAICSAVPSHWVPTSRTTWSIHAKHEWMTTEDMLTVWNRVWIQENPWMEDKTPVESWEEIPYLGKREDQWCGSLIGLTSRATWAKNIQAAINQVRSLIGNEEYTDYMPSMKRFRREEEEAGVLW

[2] = molecular target: T2, Carboxy-terminal domain RNA polymerase II polypeptide A small phosphatase 1 (Homo sapiens, UniProt Q9GZU7); test: CTDSP1 inhibitors, concentration-response, biochemical, absorbance readout, ultra-high-throughput screen actives (AID 540297); type: functional
T2 sequence (Q9GZU7 whole entry): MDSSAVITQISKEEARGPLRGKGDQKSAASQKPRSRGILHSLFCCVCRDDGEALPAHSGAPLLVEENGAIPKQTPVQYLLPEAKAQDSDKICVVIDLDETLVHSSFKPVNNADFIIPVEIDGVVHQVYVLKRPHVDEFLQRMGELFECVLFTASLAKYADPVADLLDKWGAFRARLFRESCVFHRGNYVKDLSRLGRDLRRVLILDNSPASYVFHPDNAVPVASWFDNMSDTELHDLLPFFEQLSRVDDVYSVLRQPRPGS

[3] = molecular target: T1, Corticotropin-releasing factor receptor 2/Corticotropin-releasing factor-binding protein; test: Dose Response confirmation of uHTS hits for small molecule antagonists of the CRF-binding protein and CRF-R2 receptor complex.; type: functional; conditions: read-out: IC50_Mean
cells = type: functional
[4] = THP-1 cell cytotoxicity, dose response, cytotoxicity control for non-replicating M. tuberculosis project (AID 489025); type: functional
[5] = Vero E6 cell cytotoxicity, dose response, cytotoxicity control for non-replicating M. tuberculosis project, secondary assay (AID 492998); type: functional, VeroE6; conditions: Vero C1008
[6] = molecular target: T3, Polyadenylate-binding protein 1 (Homo sapiens, UniProt P11940); test: MLLE domain peptide-binding blockers, IC50 – biochemical, fluorescence polarization, FITC-PAM2 peptide, dose response (AID 602259); type: functional; conditions: read-out: IC50_Mean
T3 sequence (P11940 whole entry, the tested form may be a part): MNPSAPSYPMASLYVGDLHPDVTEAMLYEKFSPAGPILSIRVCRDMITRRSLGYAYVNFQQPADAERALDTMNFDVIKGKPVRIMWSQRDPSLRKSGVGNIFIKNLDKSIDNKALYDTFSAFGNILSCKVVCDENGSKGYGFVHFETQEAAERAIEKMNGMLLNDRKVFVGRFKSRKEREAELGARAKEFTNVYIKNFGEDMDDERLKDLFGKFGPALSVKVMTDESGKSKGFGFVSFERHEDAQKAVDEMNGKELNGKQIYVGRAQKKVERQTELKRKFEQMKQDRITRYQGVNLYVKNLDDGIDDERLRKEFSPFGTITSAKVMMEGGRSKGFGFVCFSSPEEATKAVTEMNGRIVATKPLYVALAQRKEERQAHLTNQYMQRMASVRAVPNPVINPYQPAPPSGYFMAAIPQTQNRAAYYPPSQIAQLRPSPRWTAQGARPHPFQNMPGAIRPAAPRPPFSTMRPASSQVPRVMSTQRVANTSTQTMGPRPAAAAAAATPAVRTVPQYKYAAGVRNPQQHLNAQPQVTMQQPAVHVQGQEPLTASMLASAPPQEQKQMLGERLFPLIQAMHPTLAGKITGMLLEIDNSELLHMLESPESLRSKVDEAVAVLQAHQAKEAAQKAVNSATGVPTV

[7] = molecular target: T4, Zinc finger protein mex-5 (Caenorhabditis elegans, UniProt Q9XUB2); test: potency of MEX-5 RNA-binding blockers – biochemical, C. elegans, fluorescence polarization, dose response (AID 1960)
T4 sequence (Q9XUB2 whole entry): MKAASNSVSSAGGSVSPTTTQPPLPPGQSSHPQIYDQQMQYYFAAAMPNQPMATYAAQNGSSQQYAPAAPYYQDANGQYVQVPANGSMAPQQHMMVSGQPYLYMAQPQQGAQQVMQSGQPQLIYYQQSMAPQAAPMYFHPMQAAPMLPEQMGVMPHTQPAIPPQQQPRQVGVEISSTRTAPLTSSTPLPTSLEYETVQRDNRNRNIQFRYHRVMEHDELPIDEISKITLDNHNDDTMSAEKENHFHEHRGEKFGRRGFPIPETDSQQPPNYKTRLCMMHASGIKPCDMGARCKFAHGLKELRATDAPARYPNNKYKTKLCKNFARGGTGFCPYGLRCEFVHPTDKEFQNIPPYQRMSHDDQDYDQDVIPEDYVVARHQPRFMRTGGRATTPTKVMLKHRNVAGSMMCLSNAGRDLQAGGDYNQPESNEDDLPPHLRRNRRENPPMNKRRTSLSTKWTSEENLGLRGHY

[8] = molecular target: T5, RNA-binding protein pos-1 (Caenorhabditis elegans, UniProt G5EF15); test: disruptors of C. elegans POS-1 RNA interaction – biochemical, fluorescence polarization, dose response (AID 1964);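 note: purified POS-1 fused to maltose binding protein made in E. coli; potency of compounds blocking POS-1 binding to fluorescent RNA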
T5 sequence (G5EF15 whole entry): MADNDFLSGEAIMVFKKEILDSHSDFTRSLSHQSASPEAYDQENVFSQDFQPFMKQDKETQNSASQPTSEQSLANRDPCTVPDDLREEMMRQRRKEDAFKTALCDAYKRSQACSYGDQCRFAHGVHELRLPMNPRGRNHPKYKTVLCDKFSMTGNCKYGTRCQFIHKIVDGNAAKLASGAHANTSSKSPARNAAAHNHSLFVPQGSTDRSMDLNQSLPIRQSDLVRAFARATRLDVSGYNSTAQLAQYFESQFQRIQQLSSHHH

[9] = molecular target: T3, Polyadenylate-binding protein 1; test: MLLE binding blockers, Cy5 peptide tracer – biochemical, fluorescence polarization, Cy5-PAM2 peptide, secondary, miRNA deadenylation inhibitor project, dose response (AID 602260); type: functional; conditions: read-out: IC50_Mean
INS1 = test: INS-1E survival protection against cytokine death – cell-based, luminescence, retest, dose response (AID 449756); type: functional; conditions: Rattus norvegicus;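 note: cell death triggered by IL-1 beta plus TNF-alpha plus IFN-gamma mixture; protective hits raise ATP signal compared with cytokine alone wells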
[10] = system: Streptococcus sp. 'group A'; test: Streptococcus pyogenes SK(-)GAS viability under kanamycin – luminescence, BacTiterGlo, confirmation, counter-screen for streptokinase expression inhibitor project, dose response (AID 1900); type: functional, organism-based
[11] = molecular target: Heat shock protein HSP 90-alpha (Homo sapiens, UniProt P07900); type: functional, organism-based
Streptococcus = test: GAS UMAA2166 growth inhibition – luminescence, BacTiterGlo, counter-screen for streptokinase expression inhibitor project, dose response (AID 1915); type: functional, organism-based;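 note: potency for reduction of bacterial viability or growth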
[12] = Luminescence Cell-Based Dose Retest to Confirm Inhibitors of Cancer Stem Cells. [Related pubchem assays (depositor defined):AID2717, AID2721]; type: functional; conditions: Homo sapiens
[13] = NIH-3T3 fibroblast cytotoxicity, dose response, cytotoxicity control, cell-based, fluorescence, Alamar Blue, secondary assay (AID 2327); type: functional;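 note: NIH-3T3 mouse fibroblasts cultured with fluconazole at 8 µg/mL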
[14] = molecular target: T6, High affinity choline transporter 1 (Homo sapiens, UniProt Q9GZV3); test: human choline transporter blockers, potency – cell-based, 5-point CRC, membrane potential dye, dose response (AID 504840); type: functional
T6 sequence (Q9GZV3 whole entry): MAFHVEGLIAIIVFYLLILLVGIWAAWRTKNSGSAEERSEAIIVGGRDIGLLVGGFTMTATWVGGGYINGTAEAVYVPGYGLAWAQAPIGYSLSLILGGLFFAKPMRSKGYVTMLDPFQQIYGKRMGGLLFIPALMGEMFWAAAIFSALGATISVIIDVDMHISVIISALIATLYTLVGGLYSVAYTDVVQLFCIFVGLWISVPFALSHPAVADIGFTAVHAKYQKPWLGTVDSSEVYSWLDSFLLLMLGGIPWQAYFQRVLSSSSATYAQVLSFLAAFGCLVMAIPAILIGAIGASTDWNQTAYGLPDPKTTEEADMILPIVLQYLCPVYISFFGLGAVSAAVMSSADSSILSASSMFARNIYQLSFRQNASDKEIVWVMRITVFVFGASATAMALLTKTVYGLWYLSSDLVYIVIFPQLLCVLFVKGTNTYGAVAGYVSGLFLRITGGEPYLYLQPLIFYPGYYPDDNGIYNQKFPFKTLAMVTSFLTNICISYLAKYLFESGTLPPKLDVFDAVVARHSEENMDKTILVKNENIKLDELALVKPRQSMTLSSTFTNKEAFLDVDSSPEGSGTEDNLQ

[15] = fluconazole-exposed Candida albicans growth modulators – fluorescence, retest, confirmation (AID 2467); type: functional, cell-based
[16] = blockers of HIV-1 envelope-mediated cell-cell fusion – cherry-pick, dose response (AID 652057); type: functional, cell-based
[17] = HIV-1 AD8 envelope cell-cell fusion blockers – cherry-pick, dose response (AID 652062); type: functional, cell-based;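 note: luciferase signal from cell-cell fusion driven by HIV-1 clade B AD8 Env; potency is for inhibitors of fusion seen as a drop in luminescence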

Row | Compound | GI50 (P388/ADR) | GI50 (SN12K1) | GI50 (P388) | EC50 [1] | IC50 [3] | also measured
1 | O=C(CC1=NCCN1)c1ccccc1 | 705 µM (inactive) | > 750 µM (inactive) | > 750 µM (inactive) |  |  | 
2 | CN(C)CCNC(=O)c1cccc2cc3cc(O)ccc3nc12 | 0.288 µM (active) | 0.339 µM (active) | 0.0748 µM (active) |  |  | 
3 | COc1cc(C2c3cc4c(cc3[C@@H](Oc3ccc(F)cc3)C3COC(=O)[C@H]23)OCO4)cc(OC)c1O (stereo not given in full) | 0.354 µM (active) | 0.31 µM (active) | 0.327 µM (active) |  |  | 
4 | COc1cc(/C=C/C(=O)O)ccc1C(=O)OCc1ccccc1 | > 100 µM (inactive) | > 100 µM (inactive) | > 100 µM (inactive) |  |  | 
5 | Nc1cc(O)c2cc(/N=N/c3ccc(/N=N/c4ccc(/N=N/c5ccc6cc(S(=O)(=O)O)cc(S(=O)(=O)O)c6c5)c5ccccc45)c4cc(S(=O)(=O)O)ccc34)c(S(=O)(=O)O)cc2c1 |  | > 100 µM (inactive) | > 100 µM (inactive) |  |  | 
6 | O=C1Nn2c(nc3c(c2=O)CCCC3)/C1=N/Nc1cccc(Cl)c1 |  |  |  | > 53 µM (inactive) | 19.2 µM (active) | IC50 (Genome polyprotein): 62.4 µM (active); IC50 [2]: 5.32 µM (active)
7 | Cc1ccc(C)c(-c2nnc(NC(=O)c3ccc([N+](=O)[O-])o3)o2)c1 |  |  |  |  |  | IC50 (cells): < 0.1 µM (active); CC50 [4]: 11.7 µM (active); CC50 [5]: 11.6 µM (active)
8 | Cc1cccc(-c2nnc3sc(-c4ccccc4C)nn23)c1 |  |  |  |  |  | IC50 (cells): 34.6 µM (active); CC50 [4]: 39 µM (active); CC50 [5]: > 20 µM (active)
9 | O=C(NCc1cccc(Cl)c1)C1CCC(=O)N(CC2CCCCC2)C1 (stereo not given) |  |  |  | > 53 µM (inactive) | > 47.1 µM (inactive) | 
10 | CNC(=O)C(C)C1CCC2(C)C=CC(=O)C(C)=C2C1O (stereo not given) | > 100 µM (inactive) | > 100 µM (inactive) | > 100 µM (inactive) |  |  | 
11 | COc1cc2c(cc1NC(=O)COC(=O)CNC(=O)c1ccccc1)oc1ccccc12 |  |  |  | > 53 µM (inactive) | > 47.1 µM (inactive) | 
12 | CNC(=O)OCc1nc(SC(C)C)n(C)c1COC(=O)NC | 83.6 µM (inactive) | > 100 µM (inactive) | 46.9 µM (inactive) |  |  | 
13 | CC(C)(C)OC(=O)NC(Cc1ccccc1)C(=O)N1CCC(C(=O)NCC(=O)Nc2ccc(F)cc2)CC1 (stereo not given) |  |  |  | > 53 µM (inactive) | > 47.1 µM (inactive) | IC50 [6]: 28.7 µM (inactive); EC50 [7]: 2.04 µM (inconclusive); EC50 [8]: 7.08 µM (active); IC50 [9]: > 66 µM (inactive)
14 | CCN1CCN(C(c2ccc(C(F)(F)F)cc2)c2ccc3cccnc3c2O)CC1 (stereo not given) |  |  |  |  |  | IC50 [6]: > 66 µM (inactive); AC50 (INS1): 2.15 µM (active); EC50 [10]: 3.02 µM (active); IC50 [9]: > 66 µM (inactive); AC50 [11]: 1.36 µM (active); EC50 (Streptococcus): 3.5 µM (active)
15 | COc1ccc(CCn2c(=O)c3cccnc3n(Cc3cccc([N+](=O)[O-])c3)c2=O)cc1OC |  |  |  | > 53 µM (inactive) | > 47.1 µM (inactive) | 
16 | C=CCN(CC(=O)NCc1ccccc1)C(=O)c1csnn1 |  |  |  | > 53 µM (inactive) | > 47.1 µM (inactive) | 
17 | O=c1oc2ccccc2c(O)c1Cc1cc(Cl)c2cccnc2c1O |  |  |  |  |  | AC50 [12]: 1.09 µM (active); EC50 [13]: 76.3 µM (active); IC50 [14]: 15.2 µM (active); EC50 [15]: > 38 µM (not active); AC50 [11]: 7.2 µM (active)
18 | O=c1c2ccccc2nnn1CSc1nnc(COc2ccc(Cl)cc2)n1Cc1ccco1 |  |  |  |  |  | AC50 [16]: 15.2 µM (active); AC50 [17]: 1.12 µM (active); AC50 [11]: 3.26 µM (active)
19 | COc1ccccc1N1CCN(C(c2ccc(Cl)cc2)c2nnnn2C(C)(C)C)CC1 (stereo not given) |  |  |  | > 53 µM (inactive) | > 47.1 µM (inactive) | 
